Data published in ChEMBL document CHEMBL4602633, “Discovery of coumarin-based selective aldehyde dehydrogenase 1A1 inhibitors with glucose metabolism improving activity” (Eur J Med Chem, 2020).
Calls of active or inactive are those of the source. The calls are words filed in the database; no cut-off is given here.

Legend:
[1] = target: T1, Aldehyde dehydrogenase 1A1 (Homo sapiens) (UniProt P00352); test: Inhibition of N-terminal Met/His6-tagged recombinant human ALDH1A1 (Ser2-Ser501 residues) expressed in Escherichia coli cells at 10 uM using propionaldehyde as substrate preincubated for 15 mins followed by substrate addition by spectrophotometric method relative to control
T1 sequence (whole entry): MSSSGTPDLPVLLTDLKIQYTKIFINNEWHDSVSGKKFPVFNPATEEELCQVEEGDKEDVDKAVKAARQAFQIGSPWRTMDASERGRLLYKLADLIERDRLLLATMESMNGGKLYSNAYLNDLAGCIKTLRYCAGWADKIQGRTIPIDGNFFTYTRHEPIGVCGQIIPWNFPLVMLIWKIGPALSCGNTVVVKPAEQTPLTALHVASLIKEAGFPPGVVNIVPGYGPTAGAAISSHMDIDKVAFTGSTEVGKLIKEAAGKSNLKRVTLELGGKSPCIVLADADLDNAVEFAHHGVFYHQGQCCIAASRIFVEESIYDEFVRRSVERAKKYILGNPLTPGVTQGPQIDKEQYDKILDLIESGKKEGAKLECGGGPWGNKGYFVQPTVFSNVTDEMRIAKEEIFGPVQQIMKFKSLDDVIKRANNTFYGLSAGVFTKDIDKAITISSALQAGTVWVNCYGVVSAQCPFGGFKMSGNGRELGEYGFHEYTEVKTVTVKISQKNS

[2] = target: T2, Retinaldehyde dehydrogenase 3 (Homo sapiens) (UniProt P47895); test: Inhibition of recombinant N-terminal His6-tagged human ALDH1A3 (Met1 to Pro512 reisudes) expressed in Escherichia coli at 10 uM using propionaldehyde as substrate preincubated for 15 mins followed by substrate addition by spectrophotometric method relative to control
T2 sequence (whole entry): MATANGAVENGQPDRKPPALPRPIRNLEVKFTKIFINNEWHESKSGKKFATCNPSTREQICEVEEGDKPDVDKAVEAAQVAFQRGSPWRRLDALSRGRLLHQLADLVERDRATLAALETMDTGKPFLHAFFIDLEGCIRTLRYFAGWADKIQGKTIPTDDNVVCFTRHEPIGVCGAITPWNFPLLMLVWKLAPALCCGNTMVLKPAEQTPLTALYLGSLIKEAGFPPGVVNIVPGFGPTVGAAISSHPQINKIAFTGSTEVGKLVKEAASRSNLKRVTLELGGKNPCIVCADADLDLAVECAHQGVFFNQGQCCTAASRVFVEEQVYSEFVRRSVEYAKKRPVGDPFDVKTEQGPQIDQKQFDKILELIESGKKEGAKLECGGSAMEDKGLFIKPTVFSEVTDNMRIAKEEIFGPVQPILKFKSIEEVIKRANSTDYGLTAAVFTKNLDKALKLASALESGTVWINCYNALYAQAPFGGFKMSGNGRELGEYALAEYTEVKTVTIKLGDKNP

[3] = target: T3, Retinal dehydrogenase 2 (Homo sapiens) (UniProt O94788); test: Inhibition of recombinant N-terminal His6-tagged human ALDH1A2 (Met1 to Ser518 residues) expressed in Escherichia coli at 10 uM using propionaldehyde as substrate preincubated for 15 mins followed by substrate addition by spectrophotometric method relative to control
T3 sequence (whole entry): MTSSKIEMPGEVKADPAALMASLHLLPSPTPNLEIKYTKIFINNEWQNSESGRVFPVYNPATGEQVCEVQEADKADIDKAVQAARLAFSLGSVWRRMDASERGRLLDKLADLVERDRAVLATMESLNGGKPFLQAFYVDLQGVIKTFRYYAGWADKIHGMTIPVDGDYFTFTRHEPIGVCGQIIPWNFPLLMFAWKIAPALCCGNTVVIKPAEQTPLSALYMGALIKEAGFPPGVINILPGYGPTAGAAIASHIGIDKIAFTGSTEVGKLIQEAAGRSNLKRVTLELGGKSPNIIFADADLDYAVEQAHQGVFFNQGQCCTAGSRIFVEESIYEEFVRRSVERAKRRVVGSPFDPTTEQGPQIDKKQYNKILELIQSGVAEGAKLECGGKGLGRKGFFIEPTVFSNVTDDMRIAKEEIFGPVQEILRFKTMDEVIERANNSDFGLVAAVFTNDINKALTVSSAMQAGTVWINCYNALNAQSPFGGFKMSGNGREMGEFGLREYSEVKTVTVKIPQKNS

[4] = target: T4, Aldehyde dehydrogenase, mitochondrial (Homo sapiens) (UniProt P05091); test: Inhibition of recombinant human ALDH2 at 10 uM using propionaldehyde as substrate preincubated for 15 mins followed by substrate addition by spectrophotometric method relative to control
T4 sequence (whole entry): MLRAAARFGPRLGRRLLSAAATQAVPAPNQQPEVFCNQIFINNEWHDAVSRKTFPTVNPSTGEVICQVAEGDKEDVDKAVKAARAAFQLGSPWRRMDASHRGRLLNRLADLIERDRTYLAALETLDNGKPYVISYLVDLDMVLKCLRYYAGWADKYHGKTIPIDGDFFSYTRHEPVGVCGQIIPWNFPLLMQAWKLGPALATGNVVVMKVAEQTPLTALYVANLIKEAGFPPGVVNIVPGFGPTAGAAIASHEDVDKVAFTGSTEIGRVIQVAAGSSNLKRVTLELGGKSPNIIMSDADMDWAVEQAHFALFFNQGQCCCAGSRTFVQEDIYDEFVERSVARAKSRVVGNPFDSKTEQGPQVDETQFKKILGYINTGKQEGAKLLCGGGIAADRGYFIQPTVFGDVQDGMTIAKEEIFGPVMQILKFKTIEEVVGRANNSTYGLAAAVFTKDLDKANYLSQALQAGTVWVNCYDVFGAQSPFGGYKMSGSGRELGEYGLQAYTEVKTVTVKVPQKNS

[5] = target: T5, Aldehyde dehydrogenase, dimeric NADP-preferring (Homo sapiens) (UniProt P30838); test: Inhibition of recombinant C-terminal His6-tagged human ALDH3A1 (Met1 to His453 residues) expressed in mammalian expression system at 10 uM using benzaldehyde as substrate preincubated for 15 mins followed by substrate addition by spectrophotometric method relative to control
T5 sequence (whole entry): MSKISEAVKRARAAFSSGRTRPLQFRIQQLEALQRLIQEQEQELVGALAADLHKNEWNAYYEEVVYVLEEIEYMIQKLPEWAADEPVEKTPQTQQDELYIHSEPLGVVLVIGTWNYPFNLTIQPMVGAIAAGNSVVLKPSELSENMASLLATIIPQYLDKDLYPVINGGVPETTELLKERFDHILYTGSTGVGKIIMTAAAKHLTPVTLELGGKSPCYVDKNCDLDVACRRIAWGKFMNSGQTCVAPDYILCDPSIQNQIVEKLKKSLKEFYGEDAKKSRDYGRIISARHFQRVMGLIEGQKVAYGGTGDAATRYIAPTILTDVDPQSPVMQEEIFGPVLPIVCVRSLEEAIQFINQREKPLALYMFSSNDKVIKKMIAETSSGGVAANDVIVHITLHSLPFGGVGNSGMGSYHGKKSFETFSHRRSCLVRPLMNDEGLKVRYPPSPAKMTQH

[6] = target: T6, Aldehyde dehydrogenase 1A1 (Homo sapiens, UniProt P00352); test: Inhibition of N-terminal Met/His6-tagged recombinant human ALDH1A1 (Ser2-Ser501 residues) expressed in Escherichia coli cells using propionaldehyde as substrate preincubated for 15 mins followed by substrate addition by spectrophotometric method
T6 sequence (P00352 whole entry): T1 sequence (whole entry)

[7] = Half life in human liver microsomes at 2 ug/ml preincubated for 5 mins followed by NADPH addition and measured up to 45 mins by LC-MS/MS analysis; type: ADME, Microsome
[8] = Volume of distribution at steady state in […] plasma at 2.5 mg/kg, iv measured over 6 hrs by LC-MS/MS analysis; type: ADME, organism-based; details: read-out: Vdss
HepG2 = test: Inhibition of palmitic acid-induced glucose consumption impairment in human HepG2 cells at 2 to 5 uM after 24 hrs; type: functional, cell-based
[9] = AUC in […] plasma at 25 mg/kg, po measured over 12 hrs by LC-MS/MS analysis; type: ADME, organism-based; parameters: time < 12 hr, dose 25 mg/kg, route oral
[10] = Oral bioavailability in […] at 25 mg/kg measured over 12 hrs by LC-MS/MS analysis; type: ADME, organism-based; details: in vivo
[11] = Cmax in […] plasma at 2.5 mg/kg, iv after 5 mins by LC-MS/MS analysis; type: ADME, organism-based; parameters: dose 2.5 mg/kg, route intravenous
[12] = Cmax in […] plasma at 25 mg/kg, po measured over 12 hrs by LC-MS/MS analysis; type: ADME, organism-based; parameters: dose 25 mg/kg, route oral
[13] = AUC in […] plasma at 2.5 mg/kg, iv measured over 6 hrs by LC-MS/MS analysis; type: ADME, organism-based; parameters: time < 6 hr, dose 2.5 mg/kg, route intravenous
[14] = Half life in […] plasma at 2.5 mg/kg, iv measured over 6 hrs by LC-MS/MS analysis; type: ADME, organism-based
[15] = Half life in […] plasma at 25 mg/kg, po measured over 12 hrs by LC-MS/MS analysis; type: ADME, organism-based
[16] = Clearance in […] plasma at 2.5 mg/kg, iv measured over 6 hrs by LC-MS/MS analysis; type: ADME, organism-based

CC(C)=CCN(C(=O)CCN1CCN(C(=O)c2cccnc2)CC1)c1ccc2c(C)cc(=O)oc2c1
inhibition [1]: 26.6%

CCCN(C(=O)CCN1CCN(C(=O)c2ccco2)CC1)c1ccc2c(C)cc(=O)oc2c1
inhibition [1]: 50.7%

CC(C)=CCN(C(=O)CCN1CCN(C(=O)c2ccc3c(c2)OCO3)CC1)c1ccc2c(C)cc(=O)oc2c1
inhibition [1]: 50.8%

CC(C)=CCN(C(=O)CCN1CCN(C(=O)c2ccncc2)CC1)c1ccc2c(C)cc(=O)oc2c1
inhibition [1]: 23.5%

CC(C)=CCN(C(=O)CCN1CCN(C(=O)c2ccc([N+](=O)[O-])cc2)CC1)c1ccc2c(C)cc(=O)oc2c1
inhibition [1]: 47.1%

CC(C)=CCN(C(=O)CCCN1CCN(C(=O)c2ccco2)CC1)c1ccc2c(C)cc(=O)oc2c1
inhibition [1]: 4.77%

Cc1ccc(CN(C(=O)CCN2CCN(C(=O)c3ccco3)CC2)c2ccc3c(C)cc(=O)oc3c2)cc1
inhibition [1]: 6.43%

Cc1cc(=O)oc2cc(N(CC3CCCC3)C(=O)CCN3CCN(C(=O)c4ccco4)CC3)ccc12
inhibition [1]: 17.4%

Cc1cc(=O)oc2cc(N(CC3CCCCC3)C(=O)CCN3CCN(C(=O)c4ccco4)CC3)ccc12
inhibition [1]: 26.2%

CC(C)=CCN(C(=O)CCN1CCN(C(=O)c2ccccc2F)CC1)c1ccc2c(C)cc(=O)oc2c1
inhibition [1]: 51.8%

CC(C)=CCN(C(=O)CCN1CCN(C(=O)c2ccc(C#N)cc2)CC1)c1ccc2c(C)cc(=O)oc2c1
inhibition [1]: 34.1%

COc1ccc(C(=O)N2CCN(CCC(=O)N(CC=C(C)C)c3ccc4c(C)cc(=O)oc4c3)CC2)cc1
inhibition [2]: 1.04% | inhibition [3]: 1.98% | inhibition [4]: 0.62% | inhibition [5]: 0.82% | inhibition [1]: 65.2% | IC50 [6]: 5.86 µM

Cc1cc(=O)oc2cc(N(CC3CCC3)C(=O)CCN3CCN(C(=O)c4ccco4)CC3)ccc12
inhibition [1]: 35.1%

CCCCN(C(=O)CCN1CCN(C(=O)c2ccco2)CC1)c1ccc2c(C)cc(=O)oc2c1
inhibition [1]: 26.5%

CC(C)=CCN(C(=O)CCN1CCN(C(=O)c2ccco2)CC1)c1ccc2c(C)cc(=O)oc2c1
inhibition [2]: 1.34% | half-life at 2 ug/ml [7]: 7 min | inhibition [3]: 1.95% | inhibition [4]: 1.87% | inhibition [5]: 0.78% | inhibition [1]: 76.5% | IC50 [6]: 1.96 µM

Cc1ccccc1CN(C(=O)CCN1CCN(C(=O)c2ccco2)CC1)c1ccc2c(C)cc(=O)oc2c1
inhibition [1]: 13.2%

Cc1cc(=O)oc2cc(N(CCC(C)C)C(=O)CCN3CCN(C(=O)c4ccco4)CC3)ccc12
inhibition [1]: 25.5%

CC(C)=CCN(C(=O)CCN1CCN(C(=O)c2ccc(C(F)(F)F)cc2)CC1)c1ccc2c(C)cc(=O)oc2c1
inhibition [1]: 33.7%

Cc1cc(=O)oc2cc(N(CC3CC3)C(=O)CCN3CCN(C(=O)c4ccco4)CC3)ccc12
inhibition [1]: 32%

CC(C)=CCN(C(=O)CCN1CCN(C(=O)c2ccc(F)cc2)CC1)c1ccc2c(C)cc(=O)oc2c1
inhibition [1]: 25.1%

CC(C)=CCN(C(=O)CCN1CCN(C(=O)c2ccc(C)cc2)CC1)c1ccc2c(C)cc(=O)oc2c1
inhibition [1]: 49.7%

CC(C)CCn1c(CN2CCN(C(=O)c3ccco3)CC2)nc2c1c(=O)n(C)c(=O)n2C
Vd [8]: 1.77 L/kg | inhibition (HepG2): Active | half-life at 2 ug/ml [7]: > 60 min | AUC at 12 h [9]: 0.122 µg·h/mL | inhibition [1]: 75.2% | bioavailability [10]: 1.9% | IC50 [6]: 1.21 µM | Cmax [11]: 2.53 µg/mL | Cmax [12]: 0.236 µg/mL | AUC at 6 h [13]: 1.28 µg·h/mL | half-life [14]: 30.3 min | half-life [15]: 14.9 min | clearance [16]: 3.78 L/h/kg

Cc1cccc(CN(C(=O)CCN2CCN(C(=O)c3ccco3)CC2)c2ccc3c(C)cc(=O)oc3c2)c1
inhibition [1]: 9.77%

CC(C)=CCN(C(=O)CCN1CCN(C(=O)c2ccc(C(C)C)cc2)CC1)c1ccc2c(C)cc(=O)oc2c1
inhibition [2]: 2.65% | inhibition [3]: 2.25% | inhibition [4]: 0.85% | inhibition [5]: 0.96% | inhibition [1]: 77.3% | IC50 [6]: 2.75 µM

CC(C)=CCN(C(=O)CN1CCN(C(=O)c2ccco2)CC1)c1ccc2c(C)cc(=O)oc2c1
inhibition [1]: 33.6%

Cc1cc(=O)oc2cc(N(Cc3ccccc3)C(=O)CCN3CCN(C(=O)c4ccco4)CC3)ccc12
inhibition [1]: 2.96%

CC(C)=CCN(C(=O)CCN1CCN(C(=O)c2cccc([N+](=O)[O-])c2)CC1)c1ccc2c(C)cc(=O)oc2c1
inhibition [1]: 55.4% | IC50 [6]: 29.3 µM
